This data set can be described thus: gradient 5% acetonitrile 3 min, to 50% in 2 min, to 85% in 15 min, held 3 min, 100 µL/min. The note with it: column: Zorbax Extend-C18 2.1 x 50 mm; eluents: water / acetonitrile, 0.1% formic acid. Summed up: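 Using water and acetonitrile that each contained 0.1% formic acid, mixtures of ~100 pure standards were separated at 100 μL/min on a Zorbax Extend-C18 column (2.1 × 50 mm, 1.8 μm). The HPLC fed a quadrupole time-of-flight mass spectrometer working in positive and negative ionization mode, with dead and dwell volumes of 40 μL and 900 μL. Data were acquired over 3 months. Retention time was read from computationally picked adduct peaks after manual inspection of each.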
The molecule `Cc1[nH]c(/C=C2\C(=O)Nc3ccc(S(=O)(=O)Cc4c(Cl)cccc4Cl)cc32)c(C)c1C(=O)N1CCC[C@@H]1CN1CCCC1` yielded an RP-LC retention time of 787 s.
The same measure for `Cc1cc(Nc2cc(CN3CCOCC3)c3nc(C)c(Cc4ccc(Cl)cc4F)n3n2)n[nH]1`: 712 s; for `C=CCN1C(=O)COc2ccc(-c3nc(NC(=O)c4ccccc4C)sc3C)cc21`: 1050 s.
The same measure for `Cc1cc(F)ccc1NC(=O)C1CCCN(c2nc3c(s2)c(C)nn3-c2ccccc2)C1` (stereo not given): 1140 s.
Then `CN(C)c1ncncc1N1CCC(C(=O)NC2CC2)CC1`, with 554 s; and `CCc1nc(-c2ccnc(N3CCCC3)c2)no1`, with 616 s.
As for `O=C(Nc1cccnc1)C1CCN(S(=O)(=O)Cc2ccccc2)CC1`, the RP-LC retention time was determined as 626 s.
Then `COc1cc(-c2nc3ccccn3c2Nc2ccccc2C)ccc1O`, with 650 s; and `CC1(C(=O)NCc2ccc(F)cc2)CN(S(C)(=O)=O)CC(=O)N1c1cccc(Cl)c1` (stereo not given), with 805 s; and `CCC(=O)Nc1ccc2c(c1)CN(C(=O)c1ccccc1)C(C(=O)N1CCCC1)C2` (stereo not given), with 667 s.
Then `Cc1ccc2c(c1)C(=O)NC1(CCN(C(=O)Cc3cccc(F)c3)CC1)N2C`, with 787 s; and `COc1ccc(-c2noc(-c3nc(Cc4ccccc4)no3)n2)cc1`, with 1170 s.
The same measure for `COc1ccc(N2CC(c3nc(-c4cccc(OC)c4OC)no3)CC2=O)cc1` (stereo not given): 870 s; for `Cc1ccc(C2Cn3nnc(-c4nc(-c5cccnc5)no4)c3CO2)c(C)c1` (stereo not given): 1040 s; for `CCNC(=O)c1nc(Nc2ccc(CC)cc2)c2ccccc2n1`: 756 s.
The molecule `CC(C)C(=O)N1CCc2cc(-c3ccc(C(=O)NCCN4CCN(C)CC4)cc3)ccc21` showed an RP-LC retention time of 608 s.
Take `Cc1ccc(N2CCC(NC(=O)c3ccccc3C(F)(F)F)C2=O)cc1` (stereo not given): the RP-LC retention time came to 885 s.
Turning to `CCOc1ccc(C(=O)N2CCC3(CC2)c2nccn2-c2ccccc2CN3C)cc1`, the RP-LC retention time stood at 632 s.
The same measure for `CCn1nc(C)c(CCNC(=O)c2ccc3c(c2)NC(=O)C2CCCCN32)c1C` (stereo not given): 636 s.
`O=c1c2cc(-c3cccs3)nn2ccn1CC(O)c1cccc(Cl)c1` (stereo not given) had an RP-LC retention time of 924 s.
For the molecule `Cc1ccc(C2Cn3nnc(-c4nc(-c5ccsc5)no4)c3CO2)c(C)c1` (stereo not given), the RP-LC retention time is 1220 s.
The molecule `CCC(=O)N1CCc2cc(N3CC(C(=O)Nc4cccc(C(C)=O)c4)CC3=O)ccc21` (stereo not given) registered an RP-LC retention time of 696 s.
The same measure for `CCN(CC)S(=O)(=O)c1cc(-c2nc(C(C)(C)C)cs2)cs1`: 1350 s; for `CCCCNC(=O)C1CCCN(c2nnc3c(Cl)cccn23)C1` (stereo not given): 594 s; for `O=C(NCc1ccccc1F)C1CCCN(c2nnc3ccc(C(F)(F)F)cn23)C1` (stereo not given): 781 s.
The same measure for `CC(C)NC(=O)C1Cn2cccc2C(=O)N1` (stereo not given): 578 s.
Turning to `COc1ccc(NC(=O)Cc2csc3nc(-c4ccccc4)cn23)cc1OC`, the RP-LC retention time worked out at 703 s.
`CCn1c(=O)c2cc(C(=O)Nc3cccc(C(F)(F)F)c3)nn2c2ccccc21` displayed an RP-LC retention time of 1080 s.
`COc1ccc(F)cc1S(=O)(=O)N1CCC2(CCC(CN3CCN(C)CC3)O2)CC1` (stereo not given): the RP-LC retention time was determined as 601 s.
Then `Cc1cc(NC(=O)c2cccn2-c2cccnc2)ccc1Br`, with 881 s; and `Cc1cccc(NC(=O)CN2CCc3[nH]c4c(C)cc(F)cc4c(=O)c3C2)c1`, with 626 s; and `O=C(c1ccccc1Cl)N1CCN(c2cc(-c3ccc(Cl)cc3)[nH]n2)CC1`, with 854 s.
Then `O=C(Nc1cccc(Cl)c1)c1ccccn1`, with 1010 s.
Then `COc1cccc(CNC(=O)c2ccc3c(c2)nc2n3CCN(C3CCCCC3)C2=O)c1`, with 774 s; and `CCN(CC)c1ccc(NC(=O)CN2C(=O)C(C)(C)c3ccccc32)c(C)c1`, with 630 s; and `COc1cc(OC)c(NC(=O)C2CCCN(C(=O)c3cc(-c4ccncc4)n[nH]3)C2)cc1Cl` (stereo not given), with 633 s.
In turn, `COc1cccc(N2C(=O)C3N=NN(Cc4nc(-c5ccc(C)c(C)c5)no4)C3C2=O)c1` (stereo not given) registered an RP-LC retention time of 1030 s.
`COc1ccc(S(=O)(=O)N2CCC(C(=O)Nc3nnc(C4CCCO4)o3)CC2)cc1` (stereo not given): the RP-LC retention time turned out to be 658 s.
The same measure for `Nc1ccc(CCN2CCN(c3cccc(C(F)(F)F)c3)CC2)cc1`: 633 s.
In the case of `CCc1nc(N2CCC(C(=O)NCc3ccc(OC)c(OC)c3)CC2)c2c(C)scc2n1`, the RP-LC retention time stood at 650 s.
The same measure for `COCCc1nncn1C1CCN(S(=O)(=O)c2cccc(C(F)(F)F)c2)CC1`: 752 s; for `CCCCS(=O)(=O)N1CCC2(CC1)NCCCN=C2Nc1cccc(F)c1`: 677 s; for `O=C(Nc1cccc(-c2ccccc2)c1)N1CCN(C(=O)Nc2cccc(-c3ccccc3)c2)CC1`: 980 s.
Regarding `CC(C)CC(=O)Nc1nc(-c2ccc3c(c2)NC(=O)CO3)cs1`, the RP-LC retention time came to 787 s.
The same measure for `COCC(C)NC(=O)c1cc2c(s1)N(CC1CC1)CCCC2` (stereo not given): 976 s; for `CCN(CC)CCCNC(=O)CN1C(=O)CCn2nc(-c3cn(C)c4ccccc34)cc21`: 613 s.
Then `CN(CC1CCOCC1)C(=O)Nc1cc(F)ccc1F`, with 696 s; and `Cc1nc(CC(=O)Nc2nc(-c3ccc(F)cc3)c(C)s2)cs1`, with 894 s; and `Cn1cc(S(=O)(=O)N2CCC(C(=O)N3CCCCC3)CC2)cc1C(=O)N1CCCC1`, with 688 s.
The same measure for `Cn1ncc2c3ccccc3n(CC(=O)NC3CCN(Cc4ccccc4)CC3)c2c1=O`: 624 s.
With `CCc1cccc(NC(=O)Nc2cccc(-c3ccc(N4CCOCC4)nn3)c2)c1`, the RP-LC retention time was found to be 770 s.
Then `CN1CCN(CCNC(=O)Cn2c3ccccc3c3cnn(C)c(=O)c32)CC1`, with 570 s; and `Cc1oc(-c2[nH]ncc2C(=O)N2CCCCC2)cc1S(=O)(=O)Nc1ccccc1`, with 730 s.
The same measure for `Cc1nc2c(c(=O)n1CC(=O)NC1CCCC1)CCN(Cc1ccccc1)C2`: 602 s; for `Clc1cccc(-c2noc(-c3nc(-c4ccncc4)no3)n2)c1`: 1130 s.
In turn, `CS(=O)(=O)Nc1ccc(C2(C(=O)NCc3ccccn3)CCCCC2)cc1` displayed an RP-LC retention time of 620 s.
Consider `CSc1ccc(NC(=O)CCNc2cnc3cnccn23)cc1`, for which the RP-LC retention time came out at 619 s.
Then `CCCCOc1ccc2c(=O)c3ccc(O)cc3oc2c1`, with 928 s; and `COc1ccc(C2CC(=O)N(c3ccc(OC)c(OC)c3)C(=O)C2)cc1OC`, with 910 s; and `CCOC(=O)C1CCN([C@H]2CS(=O)(=O)C[C@@H]2S(=O)(=O)c2ccccc2)CC1`, with 826 s.
The same measure for `O=C(Nc1ccc(F)c(Cl)c1)C1CCc2sc(C(=O)N3CCOCC3)cc2C1` (stereo not given): 807 s; for `COc1ccc(Cl)cc1C(=O)Nc1ccc2c(c1)Sc1ncccc1C(=O)N2C`: 946 s.
The same measure for `COc1ccc(-c2nc3cccc(C)n3c2Nc2ccc3c(c2)OCCO3)cc1`: 987 s; for `CCCn1cc(CCNC(=O)c2ccc(Cl)cc2)c2cccnc21`: 821 s.
Turning to `CCN1CCN(CCNC(=O)c2cc3n(n2)CCCN(Cc2cccc(C)c2)C3=O)CC1`, the RP-LC retention time was 602 s.
The same measure for `O=C(CN1CCc2ccccc2C1C(=O)N1CCCC1)Nc1ccc(Cl)cc1` (stereo not given): 860 s; for `CCOCC(=O)Nc1ccc(-c2nnc(CC)o2)cc1`: 657 s.
The same measure for `Cc1cc(=O)n(CC(=O)N(C)c2ccccc2)c(N2CCCC2)n1`: 625 s.
In the case of `COc1ccc2c(c1)C(OC(C)C)=C(C(N)=O)S2=O` (stereo not given), the RP-LC retention time is 623 s.
Turning to `CCC(=O)Nc1cccc(-c2nnc3n2CCC3)c1`, the RP-LC retention time was found to be 588 s.
Then `CCn1cnc(S(=O)(=O)N2CCCC(C(=O)NCc3ccc(Cl)cc3)C2)c1` (stereo not given), with 756 s.
The molecule `CCOC(=O)C1CCN(Cc2nc(-c3ccc(N4CCCCCC4)nc3)no2)CC1` showed an RP-LC retention time of 600 s.
Then `Cn1nc(C(F)(F)F)cc1C(=O)N1CCCC1c1cccc(F)c1` (stereo not given), with 976 s.
The same measure for `COc1ccc(NC(=O)C2CCCN(c3ccc(=O)n(-c4ccc(F)cc4)n3)C2)cc1` (stereo not given): 828 s.
Then `Cc1ccc(-c2nc(CCN(C)C(=O)NCc3ccccc3)no2)cc1`, with 905 s.
Take `Cc1cc(C(=O)Nc2ccc(F)cc2F)nc2cc(-c3ccco3)nn12`: the RP-LC retention time is 1130 s.
Then `CCOc1ccccc1NC(=O)Nc1ccc2c(c1)CCN2S(=O)(=O)c1ccc(C)cc1`, with 1100 s; and `O=C(c1ccccc1)N1CCc2cc(CNS(=O)(=O)c3ccccc3)ccc21`, with 819 s; and `Cc1cccc(CNC(=O)c2cccc(C3CCCN(C(=O)NC(C)C)C3)c2)c1` (stereo not given), with 894 s.
The molecule `CCCn1cc(C(=O)Nc2ccc(F)cc2)c(S(=O)(=O)N2CCSCC2)n1` displayed an RP-LC retention time of 1030 s.

The values above are taken from the METLIN SMRT retention time set (Domingo-Almenara et al. 2019).
